According to ChEMBL document CHEMBL6134779, “Design of Proteolytic-Resistant Antifungal Peptides by Utilizing Minimum d-Amino Acid Ratios” (J Med Chem, 2024):
≈ marks a conversion by molar mass, not a printed value. Calls of active or inactive are those of the source. The calls are words filed in the database; no cut-off is given here.

Columns and labels:
[1] = tested on: Candida albicans; assay: Antifungal activity against Candida albicans CGMCC 2.2086 assessed as inhibition of fungal growth incubated for 48 hrs; assay type: functional
[2] = tested on: Candida tropicalis; assay: Antifungal activity against Candida tropicalis CGMCC 2.1975 assessed as inhibition of fungal growth incubated for 48 hrs; assay type: functional
[3] = tested on: Candida albicans; assay: Antifungal activity against Candida albicans SP3902 assessed as inhibition of fungal growth incubated for 48 hrs; assay type: functional
[4] = tested on: Candida albicans; assay: Antifungal activity against Candida albicans SP3903 assessed as inhibition of fungal growth incubated for 48 hrs; assay type: functional
[5] = tested on: Candida albicans; assay: Antifungal activity against Fluconazole-resistant Candida albicans 58288 assessed as inhibition of fungal growth incubated for 48 hrs; assay type: functional
[6] = tested on: Candida albicans; assay: Antifungal activity against Candida albicans SP3931 assessed as inhibition of fungal growth incubated for 48 hrs; assay type: functional
[7] = tested on: Candida albicans; assay: Antifungal activity against Candida albicans 14936 assessed as inhibition of fungal growth incubated for 48 hrs; assay type: functional
[8] = tested on: Candida albicans; assay: Antifungal activity against Candida albicans 17546 assessed as inhibition of fungal growth incubated for 48 hrs; assay type: functional
[9] = tested on: Candida albicans; assay: Antifungal activity against Fluconazole-resistant Candida albicans 56214 assessed as inhibition of fungal growth incubated for 48 hrs; assay type: functional
[10] = tested on: Candida parapsilosis; assay: Antifungal activity against Candida parapsilosis CGMCC 2.3989 assessed as inhibition of fungal growth incubated for 48 hrs; assay type: functional; conditions: Lodderomyces parapsilosis
[11] = Hemolytic activity in human red blood cells assessed as hemolysis incubated for 1 hr; assay type: toxicity, cell-based, Erythrocyte
[12] = Cytotoxicity against porcine IPEC-J2 cells assessed as reduction in cell viability at 128 uM incubated for 4 hrs by MTT assay; assay type: toxicity, cell-based, Sus scrofa; conditions: pig, ipec-j2, 4 h
[13] = tested on: HEK293; assay: Cytotoxicity against HEK293 cells assessed as reduction in cell viability at 128 uM incubated for 4 hrs by MTT assay; assay type: toxicity, cell-based; conditions: human, hek293, 4 h
[14] = tested on: Candida albicans; assay: Antifungal activity against Candida albicans CGMCC 2.2086 assessed as inhibition of fungal growth incubated for 48 hrs in presence of NaCl; assay type: functional
[15] = tested on: Candida albicans; assay: Antifungal activity against Candida albicans CGMCC 2.2086 assessed as inhibition of fungal growth incubated for 48 hrs in presence of KCl; assay type: functional
[16] = tested on: Candida albicans; assay: Antifungal activity against Candida albicans CGMCC 2.2086 assessed as inhibition of fungal growth incubated for 48 hrs in presence of MgCl2; assay type: functional
[17] = tested on: Candida albicans; assay: Antifungal activity against Candida albicans CGMCC 2.2086 assessed as inhibition of fungal growth incubated for 48 hrs in presence of ZnCl2; assay type: functional
[18] = tested on: Candida albicans; assay: Antifungal activity against Candida albicans CGMCC 2.2086 assessed as inhibition of fungal growth incubated for 48 hrs in presence of FeCl3; assay type: functional
[19] = Stability of the compound in NaCl assessed as change in secondary structure by CD spectra analysis; assay type: physicochemical
[20] = Stability of the compound in NH4Cl assessed as change in secondary structure by CD spectra analysis; assay type: physicochemical
[21] = Stability of the compound in MgCl2 assessed as change in secondary structure by CD spectra analysis; assay type: physicochemical
[22] = Stability of the compound in ZnCl2 assessed as change in secondary structure by CD spectra analysis; assay type: physicochemical
[23] = Stability of the compound in FeCl3 assessed as change in secondary structure by CD spectra analysis; assay type: physicochemical
[24] = tested on: Candida albicans; assay: Ratio of MIC95 for antifungal activity against Candida albicans CGMCC 2.2086 in presence of MgCl2 to MIC95 for MIC95 for antifungal activity against Candida albicans CGMCC 2.2086; assay type: functional
[25] = Proteolytic stability of the compound assessed as trypsin (unknown origin)-mediated drug degradation measured after 8 hrs by 16.5% tricine-SDS-PAGE analysis; assay type: ADME; conditions: human
[26] = Proteolytic stability of the compound assessed as chymotrypsin (unknown origin)-mediated drug degradation measured after 8 hrs by 16.5% tricine-SDS-PAGE analysis; assay type: ADME; conditions: human
[27] = Proteolytic stability of the compound assessed as chymotrypsin (unknown origin)-mediated drug degradation measured after 8 hrs by RP-HPLC analysis; assay type: ADME; conditions: human
[28] = tested on: Candida albicans; assay: Antibiofilm activity against Candida albicans CGMCC 2.2086 assessed as inhibition of biofilm formation at antifungal MIC measured after 48 hrs by crystal violet staining based assay; assay type: functional
[29] = tested on: Candida albicans; assay: Antibiofilm activity against Candida albicans CGMCC 2.2086 assessed as eradication of mature biofilm at 4X MIC measured after 3 hrs by SYTO 9/propidium iodide staining based fluorescence microscopy; assay type: functional, organism-based
[30] = tested on: Candida albicans; assay: Induction of Candida albicans CGMCC 2.2086 cell wall permeabilization at 16 uM by NPN probe based assay relative to control; assay type: functional
[31] = tested on: Candida albicans; assay: Induction of Candida albicans CGMCC 2.2086 cell wall permeabilization by NPN probe based assay; assay type: functional, organism-based; conditions: dose 1-128 µM
[32] = tested on: Cell membrane; assay: Induction of cytoplasmic membrane depolarization in Candida albicans CGMCC 2.2086 at 0.5 to 2X MIC measured up to 3600 secs by DISC3-5 dye based fluorescence assay; assay type: subcellular; conditions: time <= 3600.0 sec
[33] = tested on: Candida albicans; assay: Induction of ROS generation in Candida albicans CGMCC 2.2086 measured after 60 mins by […] dye based fluorescence assay; assay type: functional, organism-based; conditions: dose 0.5-128 µM
[34] = tested on: Cell membrane; assay: Disruption of Candida albicans CGMCC 2.2086 cell membrane at 1X MIC measured after 1 hr by SYTO9/propidium iodide staining based fluorescence microscopic analysis; assay type: subcellular
[35] = tested on: Candida albicans; assay: Induction of morphological changes in Candida albicans CGMCC 2.2086 assessed as appearance of cell holes at 1X MIC measured after 60 mins by SEM analysis; assay type: functional, organism-based
[36] = tested on: Candida albicans; assay: Induction of morphological changes in Candida albicans CGMCC 2.2086 assessed as separation of cell wall from plasma membrane at 1X MIC measured after 60 mins by TEM analysis; assay type: functional, organism-based
[37] = tested on: Candida albicans; assay: Induction of morphological changes in Candida albicans CGMCC 2.2086 assessed as cell content leakage at 1X MIC measured after 60 mins by TEM analysis; assay type: functional, organism-based
[38] = tested on: Candida albicans; assay: Resistance development in Candida albicans CGMCC 2.2086 measured after 30 passages by broth microdilution method; assay type: functional, organism-based
[39] = tested on: Candida albicans; assay: Antifungal activity against Candida albicans CGMCC 2.2086 infected in C57BL/6 mouse keratitis model assessed as reduction in clinical scores at 5 mg/ml administered as 10 uL eye drop every 5 mins for first 1 hr and every 30 mins for next 7 hrs; assay type: functional, organism-based; conditions: route ou, time 8.0 hrs
[40] = tested on: Candida albicans; assay: Antifungal activity against Candida albicans CGMCC 2.2086 infected in C57BL/6 mouse keratitis model assessed as reduction in fungal cell count at 5 mg/ml administered as 10 uL eye drop every 5 mins for first 1 hr and every 30 mins for next 7 hrs relative to control; assay type: functional; parameters: scale not given: the % may be the effect or the level left; conditions: route ou, time 8 hrs
[41] = tested on: Candida albicans; assay: Antifungal activity against Candida albicans CGMCC 2.2086 infected in C57BL/6 mouse keratitis model assessed as increase in ocular clarity at 5 mg/ml administered as 10 uL eye drop every 5 mins for first 1 hr and every 30 mins for next 7 hrs; assay type: functional, organism-based; conditions: route ou, time 8.0 hrs
[42] = tested on: Candida albicans; assay: Antifungal activity against Candida albicans CGMCC 2.2086 infected in C57BL/6 mouse keratitis model assessed as increase in ocular transparency at 5 mg/ml administered as 10 uL eye drop every 5 mins for first 1 hr and every 30 mins for next 7 hrs; assay type: functional, organism-based; conditions: route ou, time 8.0 hrs

CC[C@H](C)[C@H](N)C(=O)N[C@H](C(=O)N[C@H](CCCNC(=N)N)C(=O)N[C@@H](CCCNC(=N)N)C(=O)N[C@@H](Cc1c[nH]cn1)C(=O)N[C@H](C(=O)N[C@H](C(=O)N[C@H](C(=O)N[C@H](C(=O)N[C@H](CCCNC(=N)N)C(=O)N[C@@H](CCCNC(=N)N)C(=O)N[C@@H](Cc1c[nH]cn1)C(=O)N[C@H](C(=O)N[C@H](C(=O)N[C@H](C(=O)N[C@H](C(=O)N[C@H](CCCNC(=N)N)C(=O)N[C@@H](CCCNC(=N)N)C(=O)N[C@@H](Cc1c[nH]cn1)C(=O)N[C@H](C(=O)N[C@H](C(N)=O)[C@@H](C)CC)[C@@H](C)CC)[C@@H](C)CC)[C@@H](C)CC)[C@@H](C)CC)[C@@H](C)CC)[C@@H](C)CC)[C@@H](C)CC)[C@@H](C)CC)[C@@H](C)CC)[C@@H](C)CC showed an MIC95 [1] of 4 µM (≈ 10.9 µg/mL), an MIC95 [2] of 2 µM (≈ 5.45 µg/mL) and an MIC95 [3] of 2 µM (≈ 5.45 µg/mL). For the same compound, the MIC95 [4] was 2 µM (≈ 5.45 µg/mL), the MIC95 [5] was 2 µM (≈ 5.45 µg/mL) and the MIC95 [6] was 2 µM (≈ 5.45 µg/mL). The MIC95 [7] was 4 µM (≈ 10.9 µg/mL), the MIC95 [8] was 4 µM (≈ 10.9 µg/mL) and the MIC95 [9] was 4 µM (≈ 10.9 µg/mL). The MIC95 [10] was 4 µM (≈ 10.9 µg/mL), the HC50 at 1 h [11] was over 512 µM and the Activity [12] was “Toxic”. For the same compound, the Activity [13] was “Toxic”, the MIC95 [14] was 16 µM and the MIC95 [15] was 4 µM. It also gave an MIC95 [16] of 4 µM, an MIC95 [17] of 4 µM and an MIC95 [18] of 8 µM. The Stability [19] was “Unstable”, the Stability [20] was “Stable” and the Stability [21] was “Stable”. For the same compound, the Stability [22] was “Stable”, the Stability [23] was “Stable” and the Ratio [24] was 4. For the same compound, the Stability [25] was “Stable”, the Stability [26] was “Stable” and the Stability [27] was “Stable”. For the same compound, the “inhibition (INH)” value [28] was 90%, the Activity [29] was “Active” and the Activity [30] was over 100%. The Activity [31] was “Dose-dependent-effect”, the Activity [32] was “Active” and the Activity [33] was “Dose-dependent-effect”. The Activity [34] was “Active”, the Activity [35] was “Active” and the Activity [36] was “Active”. For the same compound, the Activity [37] was “Active”, the Activity [38] was “inactive” and the Activity [39] was “Active”. The Activity [40] was over 65%, the Activity [41] was “Active” and the Activity [42] was “Active”.
